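A five-concentration, 48-hour dose response in 96-well plates underlies each endpoint, interpolated linearly between surrounding concentrations. Here, GI50 denotes the concentration required for 50% inhibition of growth. TGI: concentration producing complete growth inhibition.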
Assays:
Assay in all cases: NCI tumour cell line growth inhibition, 48 h
SK-MEL-28 melanoma = tested on: SK-MEL-28 melanoma
HT29 colon = tested on: HT29 colon
NCI-H23 lung = tested on: NCI-H23 lung
SK-MEL-2 melanoma = tested on: SK-MEL-2 melanoma
PC-3 prostate = tested on: PC-3 prostate
HCT-15 colon = tested on: HCT-15 colon
M14 melanoma = tested on: M14 melanoma
NCI-H460 lung = tested on: NCI-H460 lung
SK-MEL-5 melanoma = tested on: SK-MEL-5 melanoma
HL-60(TB) leukemia = tested on: HL-60(TB) leukemia
RXF 393 renal = tested on: RXF 393 renal
RPMI-8226 leukemia = tested on: RPMI-8226 leukemia
MOLT-4 leukemia = tested on: MOLT-4 leukemia
U251 CNS = tested on: U251 CNS
ACHN renal = tested on: ACHN renal
LOX IMVI melanoma = tested on: LOX IMVI melanoma
SF-539 CNS = tested on: SF-539 CNS
SK-OV-3 ovarian = tested on: SK-OV-3 ovarian
OVCAR-5 ovarian = tested on: OVCAR-5 ovarian
K-562 leukemia = tested on: K-562 leukemia
SF-295 CNS = tested on: SF-295 CNS
COLO 205 colon = tested on: COLO 205 colon
SR leukemia = tested on: SR leukemia
NCI/ADR-RES ovarian = tested on: NCI/ADR-RES ovarian
A549 NSCLC = tested on: A549 NSCLC
SNB-75 CNS = tested on: SNB-75 CNS
UACC-257 melanoma = tested on: UACC-257 melanoma
HCC-2998 colon = tested on: HCC-2998 colon
NCI-H522 lung = tested on: NCI-H522 lung

CS(=O)(=O)Nc1cccc(-c2ccc3ncnc(Nc4ccc(F)c(Cl)c4)c3c2)c1 gave a TGI (SK-MEL-28 melanoma) of 7.2 µM, a GI50 (HT29 colon) of 1.64 µM and a TGI (HT29 colon) of 3.73 µM. The GI50 (NCI-H23 lung) was 2.15 µM, the TGI (NCI-H23 lung) was 6.57 µM and the GI50 (SK-MEL-2 melanoma) was 1.98 µM. The TGI (SK-MEL-2 melanoma) was 4.15 µM, the GI50 (PC-3 prostate) was 1.94 µM and the TGI (PC-3 prostate) was 5.89 µM. The GI50 (HCT-15 colon) was 1.47 µM, the TGI (HCT-15 colon) was 3.86 µM and the GI50 (M14 melanoma) was 1.76 µM. It also gave a TGI (M14 melanoma) of 3.66 µM, a GI50 (NCI-H460 lung) of 2.15 µM and a TGI (NCI-H460 lung) of 5.6 µM. The GI50 (SK-MEL-5 melanoma) was 1.64 µM, the TGI (SK-MEL-5 melanoma) was 3.19 µM and the GI50 (HL-60(TB) leukemia) was 3.53 µM. The TGI (HL-60(TB) leukemia) was 43.3 µM, the GI50 (RXF 393 renal) was 1.49 µM and the TGI (RXF 393 renal) was 4.44 µM. It also gave a GI50 (RPMI-8226 leukemia) of 2.07 µM, a TGI (RPMI-8226 leukemia) of 7.59 µM and a GI50 (MOLT-4 leukemia) of 1.8 µM. For the same compound, the TGI (MOLT-4 leukemia) was 12.4 µM, the GI50 (U251 CNS) was 1.55 µM and the TGI (U251 CNS) was 3.34 µM. For the same compound, the GI50 (ACHN renal) was 0.113 µM, the TGI (ACHN renal) was 6.06 µM and the GI50 (LOX IMVI melanoma) was 1.46 µM. The TGI (LOX IMVI melanoma) was 2.89 µM, the GI50 (SF-539 CNS) was 1.83 µM and the TGI (SF-539 CNS) was 4.2 µM. The GI50 (SK-OV-3 ovarian) was 0.233 µM, the TGI (SK-OV-3 ovarian) was 1.38 µM and the GI50 (OVCAR-5 ovarian) was 1.89 µM. For the same compound, the TGI (OVCAR-5 ovarian) was 6.66 µM, the GI50 (K-562 leukemia) was 1.98 µM and the TGI (K-562 leukemia) was 5.62 µM. For the same compound, the GI50 (SF-295 CNS) was 1.47 µM, the TGI (SF-295 CNS) was 3.08 µM and the GI50 (COLO 205 colon) was 1.6 µM. The TGI (COLO 205 colon) was 3.35 µM, the GI50 (SR leukemia) was 1.43 µM and the TGI (SR leukemia) was 5.32 µM. It also gave a GI50 (NCI/ADR-RES ovarian) of 2.03 µM, a TGI (NCI/ADR-RES ovarian) of 7.54 µM and a GI50 (A549 NSCLC) of 1.58 µM. It also gave a TGI (A549 NSCLC) of 7.49 µM, a GI50 (SNB-75 CNS) of 4.32 µM and a TGI (SNB-75 CNS) of over 30.2 µM. The GI50 (UACC-257 melanoma) was 2.05 µM, the TGI (UACC-257 melanoma) was 5.07 µM and the GI50 (HCC-2998 colon) was 1.94 µM. It also gave a TGI (HCC-2998 colon) of 3.84 µM, a GI50 (NCI-H522 lung) of 1.04 µM and a TGI (NCI-H522 lung) of 3.13 µM.

— PubChem BioAssay (NCI)
